Test results: patent US20260226493A1, “HERBICIDE RESISTANT PLANTS” (SYNGENTA CROP PROTECTION AG, priority 2023, published 2026)

Assays:
Test in all cases: BIO3-BIO1 mutant enzyme activity in the presence of herbicide, percentage inhibition (fluorometric DAPA assay)
Format in all cases: biochemical
Details in all cases: read-out: percentage inhibition
[1] = target: T1, Arabidopsis thaliana BIO3-BIO1 (BioDA) mutants (Arabidopsis thaliana, UniProt B0F481, Y511P)
T1 construct: with the predicted N-terminal mitochondrial transit peptide removed; 6xHis-tag (N); thrombin cleavage site (N); made in house; host or cells: E. coli BL21 (DE3) bioA
Summary of the method: (§1)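 His-tagged Arabidopsis BIO3-BIO1 mutants, expressed in E. coli and purified by IMAC and SEC, were preincubated at 50 nM with herbicide for 10 min at 20 °C in EPPS pH 8.6 with pyridoxal phosphate. Reaction with 100 μM spermidine and 20 μM KAPA ran 75 min at 20 °C; DAPA was derivatised with o-phthalaldehyde and read at ex 410/em 470 nm. […].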

[2] = target: T2, Arabidopsis thaliana BIO3-BIO1 (BioDA) mutants (Arabidopsis thaliana, UniProt B0F481, Q517T)
T2 construct: with the predicted N-terminal mitochondrial transit peptide removed; 6xHis-tag (N); thrombin cleavage site (N); made in house; host or cells: E. coli BL21 (DE3) bioA
Summary of the method: as §1

[3] = target: T3, Arabidopsis thaliana BIO3-BIO1 (BioDA) mutants (Arabidopsis thaliana, UniProt B0F481, A609V)
T3 construct: with the predicted N-terminal mitochondrial transit peptide removed; 6xHis-tag (N); thrombin cleavage site (N); made in house; host or cells: E. coli BL21 (DE3) bioA
Summary of the method: as §1

[4] = target: T4, Arabidopsis thaliana BIO3-BIO1 (BioDA) mutants (Arabidopsis thaliana, UniProt B0F481, S509R)
T4 construct: with the predicted N-terminal mitochondrial transit peptide removed; 6xHis-tag (N); thrombin cleavage site (N); made in house; host or cells: E. coli BL21 (DE3) bioA
Summary of the method: as §1

[5] = target: T5, Arabidopsis thaliana BIO3-BIO1 (BioDA) mutants (Arabidopsis thaliana, UniProt B0F481, T512R)
T5 construct: with the predicted N-terminal mitochondrial transit peptide removed; 6xHis-tag (N); thrombin cleavage site (N); made in house; host or cells: E. coli BL21 (DE3) bioA
Summary of the method: as §1

[6] = target: T6, Arabidopsis thaliana BIO3-BIO1 (BioDA) mutants (Arabidopsis thaliana, UniProt B0F481, T512C)
T6 construct: with the predicted N-terminal mitochondrial transit peptide removed; 6xHis-tag (N); thrombin cleavage site (N); made in house; host or cells: E. coli BL21 (DE3) bioA
Summary of the method: as §1

[7] = target: T7, Arabidopsis thaliana BIO3-BIO1 (BioDA) mutants (Arabidopsis thaliana, UniProt B0F481, Q517I)
T7 construct: with the predicted N-terminal mitochondrial transit peptide removed; 6xHis-tag (N); thrombin cleavage site (N); made in house; host or cells: E. coli BL21 (DE3) bioA
Summary of the method: as §1

[8] = target: T8, Arabidopsis thaliana BIO3-BIO1 (BioDA) mutants (Arabidopsis thaliana, UniProt B0F481, P421L)
T8 construct: with the predicted N-terminal mitochondrial transit peptide removed; 6xHis-tag (N); thrombin cleavage site (N); made in house; host or cells: E. coli BL21 (DE3) bioA
Summary of the method: as §1

[9] = target: T9, Arabidopsis thaliana BIO3-BIO1 (BioDA) mutants (Arabidopsis thaliana, UniProt B0F481, DEL513-513)
T9 construct: with the predicted N-terminal mitochondrial transit peptide removed; 6xHis-tag (N); thrombin cleavage site (N); made in house; host or cells: E. coli BL21 (DE3) bioA
Summary of the method: as §1

[10] = target: T10, Arabidopsis thaliana BIO3-BIO1 (BioDA) mutants (Arabidopsis thaliana, UniProt B0F481, G610H)
T10 construct: with the predicted N-terminal mitochondrial transit peptide removed; 6xHis-tag (N); thrombin cleavage site (N); made in house; host or cells: E. coli BL21 (DE3) bioA
Summary of the method: as §1

[11] = target: T11, Arabidopsis thaliana BIO3-BIO1 (BioDA) mutants (Arabidopsis thaliana, UniProt B0F481, C388M)
T11 construct: with the predicted N-terminal mitochondrial transit peptide removed; 6xHis-tag (N); thrombin cleavage site (N); made in house; host or cells: E. coli BL21 (DE3) bioA
Summary of the method: as §1

[12] = target: T12, Arabidopsis thaliana BIO3-BIO1 (BioDA) mutants (Arabidopsis thaliana, UniProt B0F481, A609Y)
T12 construct: with the predicted N-terminal mitochondrial transit peptide removed; 6xHis-tag (N); thrombin cleavage site (N); made in house; host or cells: E. coli BL21 (DE3) bioA
Summary of the method: as §1

T6 sequence (B0F481 23-833 T512C): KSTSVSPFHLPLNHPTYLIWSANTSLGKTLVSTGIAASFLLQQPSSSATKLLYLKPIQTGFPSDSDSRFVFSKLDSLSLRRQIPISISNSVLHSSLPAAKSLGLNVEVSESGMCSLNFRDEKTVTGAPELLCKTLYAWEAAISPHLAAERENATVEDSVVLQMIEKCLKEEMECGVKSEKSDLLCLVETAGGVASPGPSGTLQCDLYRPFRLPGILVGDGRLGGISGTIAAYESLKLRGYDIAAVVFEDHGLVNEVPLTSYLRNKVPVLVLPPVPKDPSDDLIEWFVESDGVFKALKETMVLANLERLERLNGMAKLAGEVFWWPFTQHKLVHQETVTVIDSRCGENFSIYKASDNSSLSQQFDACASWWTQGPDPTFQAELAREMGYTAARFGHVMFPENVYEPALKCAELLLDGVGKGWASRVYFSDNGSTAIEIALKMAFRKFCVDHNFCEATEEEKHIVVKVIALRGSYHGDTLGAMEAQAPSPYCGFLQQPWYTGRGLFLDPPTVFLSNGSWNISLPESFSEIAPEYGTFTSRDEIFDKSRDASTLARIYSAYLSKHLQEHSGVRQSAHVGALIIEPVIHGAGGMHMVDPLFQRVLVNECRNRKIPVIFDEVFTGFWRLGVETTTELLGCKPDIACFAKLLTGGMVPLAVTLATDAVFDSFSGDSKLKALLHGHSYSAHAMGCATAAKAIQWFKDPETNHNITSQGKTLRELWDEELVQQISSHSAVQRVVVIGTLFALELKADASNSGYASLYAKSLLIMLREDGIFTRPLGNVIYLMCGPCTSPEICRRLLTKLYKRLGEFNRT
T12 sequence (B0F481 23-833 A609Y): as the sequence (B0F481 23-833 T512C) above, with C490T, A587Y counted along it
T7 sequence (B0F481 23-833 Q517I): as the sequence (B0F481 23-833 T512C) above, with C490T, Q495I counted along it
T2 sequence (B0F481 23-833 Q517T): as the sequence (B0F481 23-833 T512C) above, with C490T, Q495T counted along it
T5 sequence (B0F481 23-833 T512R): as the sequence (B0F481 23-833 T512C) above, with C490R counted along it
T3 sequence (B0F481 23-833 A609V): as the sequence (B0F481 23-833 T512C) above, with C490T, A587V counted along it
T11 sequence (B0F481 23-833 C388M): as the sequence (B0F481 23-833 T512C) above, with C366M, C490T counted along it
T9 sequence (B0F481 other isoform, or with tags, fused parts or gaps DEL513-513): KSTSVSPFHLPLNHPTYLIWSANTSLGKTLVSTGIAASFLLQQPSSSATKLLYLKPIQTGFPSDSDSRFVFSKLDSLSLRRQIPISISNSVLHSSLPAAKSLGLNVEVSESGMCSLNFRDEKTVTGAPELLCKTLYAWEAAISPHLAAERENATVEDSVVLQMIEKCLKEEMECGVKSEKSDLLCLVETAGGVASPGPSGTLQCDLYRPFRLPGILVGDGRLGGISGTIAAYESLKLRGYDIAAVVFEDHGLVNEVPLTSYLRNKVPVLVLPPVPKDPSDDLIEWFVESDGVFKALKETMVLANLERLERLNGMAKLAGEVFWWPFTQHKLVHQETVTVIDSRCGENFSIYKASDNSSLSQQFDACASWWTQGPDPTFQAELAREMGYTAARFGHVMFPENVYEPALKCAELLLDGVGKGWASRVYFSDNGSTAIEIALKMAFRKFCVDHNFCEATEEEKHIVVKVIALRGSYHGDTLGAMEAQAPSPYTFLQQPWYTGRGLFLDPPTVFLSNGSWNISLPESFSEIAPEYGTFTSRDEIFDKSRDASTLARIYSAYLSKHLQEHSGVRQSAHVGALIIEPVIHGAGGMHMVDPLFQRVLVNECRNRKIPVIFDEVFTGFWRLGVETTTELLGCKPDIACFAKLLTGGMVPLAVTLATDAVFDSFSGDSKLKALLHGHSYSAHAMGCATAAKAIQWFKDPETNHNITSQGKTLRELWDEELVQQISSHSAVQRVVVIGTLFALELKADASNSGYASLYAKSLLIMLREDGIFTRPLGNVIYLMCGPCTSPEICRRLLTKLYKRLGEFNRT
T4 sequence (B0F481 23-833 S509R): as the sequence (B0F481 23-833 T512C) above, with S487R, C490T counted along it
T8 sequence (B0F481 23-833 P421L): as the sequence (B0F481 23-833 T512C) above, with P399L, C490T counted along it
T1 sequence (B0F481 23-833 Y511P): as the sequence (B0F481 23-833 T512C) above, with Y489P, C490T counted along it
T10 sequence (B0F481 23-833 G610H): as the sequence (B0F481 23-833 T512C) above, with C490T, G588H counted along it

Row | SMILES | inhibition at 1 µM [1] | inhibition at 1 µM [2] | inhibition at 1 µM [3] | inhibition at 1 µM [4] | inhibition at 1 µM [5] | inhibition at 1 µM [6] | inhibition at 1 µM [7] | inhibition at 1 µM [8] | inhibition at 1 µM [9] | inhibition at 1 µM [10] | inhibition at 1 µM [11] | inhibition at 1 µM [12] | inhibition at 0.2 µM [1] | inhibition at 5 µM [1] | inhibition at 0.2 µM [2] | inhibition at 5 µM [2] | inhibition at 0.2 µM [3] | inhibition at 5 µM [3] | inhibition at 0.2 µM [4] | inhibition at 5 µM [4] | other results
1 | CCOC(=O)c1nn(-c2ccc3c(c2)OC(F)(F)C(F)(F)O3)c2cccc(C(C)=O)c2c1=O [Compound A, ethyl 5-acetyl-4-oxo-1-(2,2,3,3-tetrafluoro-1,4-benzodioxin-6-yl)cinnoline-3-carboxylate] | 28% | 46% | 5% | 15% | 82% | 50% | 28% | 61% | 29% | 10% | 31% | 0% | – | – | – | – | – | – | – | – | –
2 | CCn1c(C)c(-c2ccc(F)cc2F)c(=O)c(C(=O)O)c1-c1ccc(Cl)c(Cl)c1 [Compound C, 2-(3,4-dichlorophenyl)-5-(2,4-difluorophenyl)-1-ethyl-6-methyl-4-oxo-pyridine-3-carboxylic acid] | 95% | 47% | 11% | 87% | 95% | 83% | 58% | 35% | 90% | 58% | 17% | 0% | 53% | 99% | 14% | 73% | 0% | 58% | 42% | 98% | inhibition at 0.2 µM [5]: 74%; inhibition at 5 µM [5]: 99%; inhibition at 0.2 µM [6]: 22%; inhibition at 5 µM [6]: 97%; inhibition at 0.2 µM [7]: 25%; inhibition at 5 µM [7]: 82%; inhibition at 0.2 µM [8]: 4%; inhibition at 5 µM [8]: 67%; inhibition at 0.2 µM [9]: 69%; inhibition at 5 µM [9]: 98%; inhibition at 0.2 µM [10]: 19%; inhibition at 5 µM [10]: 82%; inhibition at 0.2 µM [11]: 20%; inhibition at 5 µM [11]: 69%; inhibition at 0.2 µM [12]: 0%; inhibition at 5 µM [12]: 43%
3 | CCn1c(Cn2ccc(C(F)(F)F)n2)cc(=O)c(C(=O)O)c1-c1ccc(Cl)c(Cl)c1 [Compound L, 2-(3,4-dichlorophenyl)-1-ethyl-4-oxo-6-[[3-(trifluoromethyl)pyrazol-1-yl]methyl]pyridine-3-carboxylic acid] | – | – | – | – | – | – | – | – | – | – | – | – | – | – | – | – | – | – | – | – | inhibition at 0.01 µM [3]: 0%; inhibition at 0.075 µM [3]: 0%; inhibition at 0.5 µM [3]: 0%; inhibition at 0.01 µM [8]: 0%; inhibition at 0.075 µM [8]: 10%; inhibition at 0.5 µM [8]: 45%; inhibition at 0.01 µM [9]: 31%; inhibition at 0.075 µM [9]: 30%; inhibition at 0.5 µM [9]: 54%; inhibition at 0.01 µM [10]: 7%; inhibition at 0.075 µM [10]: 18%; inhibition at 0.5 µM [10]: 65%; inhibition at 0.01 µM [11]: 10%; inhibition at 0.075 µM [11]: 18%; inhibition at 0.5 µM [11]: 34%; inhibition at 0.01 µM [12]: 0%; inhibition at 0.075 µM [12]: 0%; inhibition at 0.5 µM [12]: 0%
4 | CCn1c(-c2ccc(Cl)c(Cl)c2)c(C(=O)O)c(=O)c2cc(F)ccc21 [Compound M, 2-(3,4-dichlorophenyl)-1-ethyl-6-fluoro-4-oxo-quinoline-3-carboxylic acid] | 89% | 39% | 44% | 82% | 95% | 79% | 44% | 6% | 83% | 59% | 24% | 4% | 48% | 98% | 14% | 71% | 22% | 75% | 48% | 96% | inhibition at 0.2 µM [5]: 81%; inhibition at 5 µM [5]: 99%; inhibition at 0.2 µM [6]: 27%; inhibition at 5 µM [6]: 95%; inhibition at 0.2 µM [7]: 19%; inhibition at 5 µM [7]: 72%; inhibition at 0.2 µM [8]: 0%; inhibition at 5 µM [8]: 31%; inhibition at 0.2 µM [9]: 60%; inhibition at 5 µM [9]: 95%; inhibition at 0.2 µM [10]: 26%; inhibition at 5 µM [10]: 84%; inhibition at 0.2 µM [11]: 16%; inhibition at 5 µM [11]: 41%; inhibition at 0.2 µM [12]: 0%; inhibition at 5 µM [12]: 45%
